Patent US20010014671A1, “Treatment of osteoarthritis by administering poly-N-acetyl-D-glucosamine” (Lescarden, Inc., priority 1996, published 2001)

Assays:
[1] = Serum NAG and glucosamine levels after oral ingestion of NAG or poly-NAG in healthy subjects (crossover, HPLC analysis); format: in vivo, human
Source text: Ten normal, healthy subjects (five men and five women ages 36-50) were randomly divided into two groups (designated as A and B). On Day-1 a fasting blood sample was collected from each patient. Following this, group A orally ingested 1.0 gram of NAG and group B ingested 1.0 gram of poly-NAG. On Day-2 the subjects again ingested one gram of the appropriate test substance before breakfast. On the third day a fasting blood sample was taken at time T=0. Subsequently, they consumed the final 1.0 gram of the appropriate test substance, and nonfasting blood samples were taken at 1, 2, 4, and 8 hours. Fasting blood samples were taken at 24 and 48 hours thereafter. […] On Day-8, after a fasting blood sampling, the groups were switched (i.e., group A took poly-NAG while group B consumed NAG) and the same procedure as shown above was repeated.
The data were analyzed using analytical HPLC procedure based on published methods for amino sugar analysis. The chromatographic system consisted of a Hewlett-Packard 1090M Liquid Chromatograph/Work Station equipped with a Diode Array Detector. Separation was by isocratic elution at 40° C. from a 300×7.8 mm Rezex Organic Acid Column (Phenomenex; N>75000 P/m) with 0.005N H2SO4 at a flow rate of 0.6 ml/min. The analytical conditions had been developed for resolution of the aminosugar/acetylated aminosugar components of physiological fluids, and the diode array detector was optimized at 193 nm for maximum sensitivity and minimum interference. The system was calibrated with standards before, during and after the study to assure there were no significant changes due to wear and tear or aging of the system. The chromatographic data were transferred to a spreadsheet and statistically tested with ANOVA (Single Factor, Two-Factor without Replication, Two-Factor with Replication) and paired T-tests.

[2] = human trials, cited from earlier work
[3] = cited from earlier work

CC(=O)N[C@H]1C(O)O[C@H](CO)[C@@H](O)[C@@H]1O (stereo partly drawn) [NAG, N-acetyl-D-glucosamine]
subjects showing decreased serum NAG levels ([1]; 24 hours following cessation of ingestion, both groups together (4/20)): 20%
concentration of NAG in serum, Avg ([1]; Pre (pretest fasting sample before ingestion), 1.0 g per day oral): 10.3 nanomoles per ml of serum
subjects with increased serum NAG concentrations ([1]; T=0 compared with pretest values, fraction of 20 subject-periods): 6/20
subjects showing an increase in serum NAG ([1]; T=1 hour compared with pretest value, fraction of 20 subject-periods): 8/20
concentration at 0 h ([1]; both sexes, human, serum, T0, third day fasting, before final 1.0 g oral dose): 15.4 µM
concentration at 1 h ([1]; both sexes, human, serum, T1, 1 hour after final 1.0 g oral dose, nonfasting): 18.2 µM
concentration at 2 h ([1]; both sexes, human, serum, T2, 2 hours after final 1.0 g oral dose, nonfasting): 21 µM
concentration at 4 h ([1]; both sexes, human, serum, T4, 4 hours after final 1.0 g oral dose, nonfasting): 22.9 µM
concentration at 8 h ([1]; both sexes, human, serum, T8, 8 hours after final 1.0 g oral dose, nonfasting): 14.6 µM
concentration at 24 h ([1]; both sexes, human, serum, T24, 24 hours after final 1.0 g oral dose, fasting): 13.6 µM
concentration at 48 h ([1]; both sexes, human, serum, T48, 48 hours after final 1.0 g oral dose, fasting): 12.7 µM

N[C@H]1C(O)O[C@H](CO)[C@@H](O)[C@@H]1O.O=S(=O)(O)O (stereo partly shown) [glucosamine sulfate]
effect on symptoms of osteoarthritis ([2]; pain, joint tenderness, swelling and mobility): significant improvement in the symptoms of pain, joint tenderness, swelling and mobility
adverse side effects or undesirable drug interactions [2]: not to have any adverse side effects or undesirable interactions with other drugs

N[C@H]1C(O)O[C@H](CO)[C@@H](O)[C@@H]1O (stereo partly shown) [glucosamine]
excreted in the feces ([3]; dog, in vivo): 1.7%
time of peak protein incorporation of glucosamine ([3]; incorporation into alpha and beta globulins): 8 h
excreted in urine ([3]; mainly as glucosamine): 34%
